Reference: patent US6878388B1, “Vanadium compounds for treating proliferative cell disorders” (Parker Hughes Institute, priority 2000, dated 2005)
Where two headings read alike, the source gives them in different places.

Tests used:
[1] = system: MDA-MB-231 breast cancer cells; test: In vitro adhesion assay to ECM proteins, MDA-MB-231; type: cell-based, human; conditions: 16 h pretreatment, mean ± SE of 3 experiments
Method: In vitro adhesion assays were used to evaluate the effects of [VO(SO4)(Me2-Phen)2] on the adhesive properties of U87 and MDA-MD-231 cells as described previously (Narla et al., Clin Cancer Res, 4: 2463-2471, 1998). The plates for the adhesion assays were pre-coated with the extracellular matrix (ECM) proteins laminin, fibronectin, vitronectin and type IV collagen (each at a final concentration of 1 μg/ml in PBS) overnight at 4° C. and dried. Exponentially-growing cells (as described in the previous Example) were incubated with [VO(SO4)(Me2-Phen)2] at concentrations ranging from 0.5 μM to 25 μM for 16 hours in a humidified 5% CO2 atmosphere. The cells were then detached from the flasks with 0.05% trypsin (Life Technologies), resuspended in medium, incubated at 37° C. for 2 hours to allow them to recover from the trypsinization stress and examined for their ability to adhere to the plates precoated with ECM proteins. Cells were centrifuged, washed twice with serum-free medium, counted and resuspended in serum-free medium at a final concentration of 2.5×10^5 cells/ml. The cell suspension was added to each well in aliquots of 100 μl and the cells were allowed to adhere for one hour at 37° C. in a humidified 5% CO2atmosphere. The non-adherent cells were removed by gently washing the cells with PBS. The adherent fraction was quantitated using MTT assays as previously described (Narla, Supra).
U87 glioblastoma and MDA-MD-231 breast cancer cells were preincubated with various concentrations of [VO(SO4)(Me2-Phen)2] and processed for adhesion assays. [VO(SO4)(Me2-Phen)2] inhibited adhesion of the U87 and MDA-MB-231 cells to extracellular matrix (ECM) proteins, Pretreatment of cells with [VO(SO4)(Me2-Phen)2] inhibited the adhesion of U87 glioblastoma and MDA-MB-231 breast cancer cells to laminin-, fibronectin-, vitronectin- and collagen-coated plates. The inhibition of glioblastoma cell adhesion was concentration-dependent with mean (±SE) IC50 values from 3 independent experiments shown in the table below.

[2] = system: T98 human glioblastoma cells; test: MTT cytotoxicity assay, T98; type: cell-based; conditions: 48 h incubation, 3 independent experiments, read-out: IC50 (mean ± SE)
Method: (§1) Human brain tumor cells lines U87 MG (Cat.# HTB-14), U118 MG (Cat. # HTB-15), U138 (Cat # HTB-16), U373 MG (CAT. # HTB-17), and T98G (Cat. # CRL-1690) and breast cancer cell lines BT-20 (Cat # HTB-19), MDA-MB-231 (Cat # HTB-26), MDA-MB-361 (Cat # HTB-27), and MCF-7 (Cat # HTB-22) were obtained from American Type Culture Collection (ATCC, Rockville, Md.) and maintained as continuous cell lines in Dulbecco's modified Eagles's medium (U87, U118, U138, U373, T98 and BT-20) or Leibovitz's L-15 medium (MDA-MB-231 and MDA-MB-361). All media were supplemented with 10% fetal calf serum (FCS), 4 mM glutamine, 100 U/ml penicillin G and […] streptomycin sulfate. All tissue culture reagents were obtained from Life Technologies Inc. (GIBCO-BRL, Gaithersburg, Md.).
(§2) The cytotoxicity of [VO(SO4)(Me2-Phen)2] against human cancer cell lines was analyzed using the MTT (3-[4,5-dimethylthiazol-2-yl]-2,5-diphenyl tetrazolium bromide) assay (Boehringer Mannheim Corp., Indianapolis, Ind.) as described previously (Narla et al., Clin Cancer Res., 4: 1405-1414, 1998). […] The absorbance at 540 nm (a reference wavelength of 690 nm was used) of the solution in each well was measured using a microplate reader (Labsystems). The percent survival and the IC50 values were calculated using Graphpad Prism v2.0 (Graphpad Software, Inc., San Diego, Calif.) as described previously (Narla et al., Supra). […]

[3] = system: U118 human glioblastoma cells; test: MTT cytotoxicity assay, U118; type: cell-based; conditions: 48 h incubation, 3 independent experiments, read-out: IC50 (mean ± SE)
Method: as §1, §2

[4] = system: MDA-MB-231 breast cancer cells; test: In situ detection of apoptosis (TdT-mediated dUTP nick-end labeling), MDA-MB-231; type: cell-based, human; conditions: MDA-MB-231 cells, dUTP-FITC labeling; read-out: apoptotic EC50
Method: Apoptosis was detected using an in situ cell death detection kit (Boehringer Mannheim Corp., Indianapolis, Ind.) as described previously (Albini et al., J. Cell Biol., 105: 1867-1872, 1987; Huang et al., J Biol Chem., 272: 2927-2935, 1997). Cells were incubated with [VO(SO4)(Me2-Phen)2] for 48 hours at 37° C., fixed, permeabilized, incubated with the reaction mixture containing terminal deoxynucleotidyl transferase (TdT) and fluorescein isothiocyanate (FITC)-conjugated dUTP and counterstained with propidium iodide. Cells were transferred to slides and viewed with confocal laser scanning microscope (Bio-Rad MRC 1024) mounted on a Nikon Eclipse E800 series upright microscope as previously reported (Narla et al., Supra).
Administration of [VO(SO4)(Me2-Phen)2] to cells induced apoptotic or programmed cell death as determined using the TdT-mediated dUTP nick-end labeling of exposed 3′-OH termini of DNA with dUTP-FITC.

Question: Cc1ccnc2c1ccc1c(C)ccnc12.Cc1ccnc2c1ccc1c(C)ccnc12.O=S(=O)([O-])[O-].[O]=[V+2] [[VO(SO4)(Me2-Phen)2], bis(4,7-dimethyl-1,10-phenanthroline) sulfatooxovanadium (IV)] was tested. Which IC50 ([1]; MDA-MB-231, fibronectin-coated plates, read-out: IC50 inhibition of adhesion to fibronectin) did it give?
Answer: The IC50 was 1 µM.

Question: What about the IC50 ([1]; MDA-MB-231, laminin-coated plates, read-out: IC50 inhibition of adhesion to laminin) of the same compound?
Answer: The IC50 was 1 ± 0.1 µM.

Question: What about the IC50 ([1]; MDA-MB-231, type IV collagen-coated plates, read-out: IC50 inhibition of adhesion to collagen) of the same compound?
Answer: The IC50 was 1.3 µM.

Question: And the IC50 ([1]; MDA-MB-231, vitronectin-coated plates, read-out: IC50 inhibition of adhesion to vitronectin)?
Answer: Its IC50 is 1.1 ± 0.1 µM.

Question: And the IC50 [2]?
Answer: The IC50 was 3.9 ± 0.5 µM.

Question: What about the IC50 [3] of the same compound?
Answer: The IC50 was 0.82 ± 0.1 µM.

Question: And the EC50 [4]?
Answer: The EC50 was 2.1 ± 0.4 µM.
